Results: US12617780B2, “Benzothiophene, thienopyridine and thienopyrimidine derivatives for the modulation of sting” (CTXT PTY LTD, priority 2019, dated 2026)

Columns and labels:
WT human STING isoform = molecular target: T1, WT human STING isoform (Homo sapiens, UniProt Q86WV6, H232R); assay: THP-1-Dual KI-hSTING-R232 reporter cell line assay; format: cell-based; conditions: 24 h incubation, QUANTI-Luc luminescence; normalised to 40 μM ML RR-S2 CDA; read-out: EC50 THP-1 Dual KI-hSTING-R232 cells
T1 construct: host or cells: THP-1-Dual KI-hSTING-R232
T1 sequence (Q86WV6 whole entry H232R, canonical isoform): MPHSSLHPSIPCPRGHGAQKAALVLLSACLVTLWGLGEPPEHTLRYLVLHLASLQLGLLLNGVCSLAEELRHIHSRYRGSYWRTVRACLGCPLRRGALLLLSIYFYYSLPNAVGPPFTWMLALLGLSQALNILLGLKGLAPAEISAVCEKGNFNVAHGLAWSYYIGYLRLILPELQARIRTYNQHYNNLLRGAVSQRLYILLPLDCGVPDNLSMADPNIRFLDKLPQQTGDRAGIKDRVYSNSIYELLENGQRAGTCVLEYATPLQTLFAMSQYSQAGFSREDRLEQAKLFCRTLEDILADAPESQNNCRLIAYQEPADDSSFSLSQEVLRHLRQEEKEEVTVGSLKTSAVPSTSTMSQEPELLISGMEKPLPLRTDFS
Protocol: (§1) THP-1 STING Lucia ISG cells (InvivoGen #thpl-isg) were cultured in RPMI-1640 containing 2 mM L-glutamine, 25 mM HEPES, 100 μg/mL Normocin (InvivoGen) and 10% heat-inactivated FBS. Cells were seeded at a density of 7×10^5 cells/mL, maintained at 37° C./5% CO2, and passaged every 3-4 days. Selection pressure was maintained by the addition of 100 μg/mL Zeocin every second passage.
(§2) Assay conditions: cells were harvested and resuspended at a concentration of 5×10^5 cells/mL in fresh growth media. Of this cell preparation 20 μL per well was dispensed into 384 well cell culture plates (Greiner, #781098X) and incubated at 37° C./5% CO2 for 2 hours.
(§3) Concentration Response Curves (commonly 11 doses) were prepared by 2.5 fold serial dilution starting from 10 mM compound stock solution in DMSO. Compound dilutions were transferred into the cell culture plates using a pintool (0.1 μL transfer), control wells were matched for DMSO. Positive control wells received ML RR-S2 CDA (Med Chem Express HY12885B) in 5 μL of media to a final concentration of 40 μM. All other wells received additional 5 μL of media only to equalise volume. The plates were incubated for 24 h at 37° C./5% CO2.
(§4) For the detection step, QUANTI-Luc (InvivoGen #rep-qlc1) was prepared according to manufacturer's instruction and 10 μL were added per well to the culture plates. Plates were shaken for ten seconds on an orbital shaker and left in the dark at room temperature for two minutes, before luminescence was read on a Perkin Elmer Envision plate reader.
(§5) Data analysis: Luminescence raw data was normalised % activity relative to the signal of the positive control wells and negative control wells which were not treated with compound. The following formula was used to calculate normalised % activity from raw signals: % activity=(sample−negative)/(positive−negative)
(§6) The THP-1 STING Lucia ISG cell EC50 provides an assessment of activity at the human HAQ isoform of STING. For assessing compound activity against the WT human STING isoform, an equivalent method was conducted where the cells used were THP-1-Dual KI-hSTING-R232 (InvivoGen #thpd-r232).

[1] = molecular target: T2, human HAQ isoform of STING (Homo sapiens, UniProt Q86WV6, G230A/H232R/R293Q/R71H); assay: THP-1 STING Lucia ISG reporter cell line assay; format: cell-based; conditions: 24 h incubation, QUANTI-Luc luminescence; normalised to 40 μM ML RR-S2 CDA; read-out: EC50 THP-1 STING Lucia ISG cells
T2 construct: host or cells: THP-1 STING Lucia ISG cells
T2 sequence (Q86WV6 whole entry R71H/G230A/H232R/R293Q, canonical isoform): as the sequence (Q86WV6 whole entry H232R, canonical isoform) above, with R71H, G230A, R293Q counted along it
Protocol: as §1, §2, §3, §4, §5, §6

huSTING (HAQ) = molecular target: T3, huSTING (HAQ) (Homo sapiens, UniProt Q86WV6, G230A/H232R/R293Q); assay: Surface Plasmon Resonance (SPR) STING (HAQ); format: binding; conditions: biotinylated STING on streptavidin chip, 8° C.; 50% occupancy as surrogate KD
T3 construct: made in house; host or cells: E. coli BL21 DE3
T3 sequence (Q86WV6 with tags, fused parts or gaps G230A/H232R/R293Q): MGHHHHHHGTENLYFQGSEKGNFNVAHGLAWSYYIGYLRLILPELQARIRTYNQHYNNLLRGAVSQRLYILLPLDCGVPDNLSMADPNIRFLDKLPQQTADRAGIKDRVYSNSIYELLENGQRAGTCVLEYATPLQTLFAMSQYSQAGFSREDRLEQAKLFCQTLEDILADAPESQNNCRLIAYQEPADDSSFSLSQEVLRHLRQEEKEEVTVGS
Excerpt: (§7) To determine binding affinities (50% occupancy as a surrogate Ko for the two binding events occurring) from dose-response experiments, binding responses at equilibrium were fit to a Hill equation, where the Hill coefficient was floated (52). For single-cycle kinetic experiments, sensorgrams were fit to a two-step kinetic model in which two analyte molecules bind sequentially (Biacore T200 or S200 Evaluation Software).

huSTING (WT) = molecular target: T4, huSTING (WT) (Homo sapiens, UniProt Q86WV6, H232R); assay: Surface Plasmon Resonance (SPR) STING (WT); format: binding; conditions: biotinylated STING on streptavidin chip, 8° C.; 50% occupancy as surrogate KD
T4 construct: made in house; host or cells: E. coli BL21 DE3
T4 sequence (Q86WV6 with tags, fused parts or gaps H232R): as the sequence (Q86WV6 with tags, fused parts or gaps G230A/H232R/R293Q) above, with A100G, Q163R counted along it
Excerpt: as §7

CCOC(=O)c1sc2c(F)ccc(Br)c2c1-c1nc2ccc(C(N)=O)c(OC)c2[nH]1 [Example 10, Ethyl 4-bromo-3-(6-carbamoyl-7-methoxy-1H-benzo[d]imidazol-2-yl)-7-fluorobenzo[b]thiophene-2-carboxylate]
EC50 (WT human STING isoform): 121 nM
EC50 [1]: 43 nM

CCOC(=O)c1sc2cccc(Cl)c2c1-c1nc2c(Cl)c(C(N)=O)ccc2[nH]1 [Example 12, Ethyl 3-(5-carbamoyl-4-chloro-1H-benzo[d]imidazol-2-yl)-4-chlorobenzo[b]thiophene-2-carboxylate]
EC50 (WT human STING isoform): 24 nM
EC50 [1]: 12 nM

CCOC(=O)c1sc2c(F)ccc(Br)c2c1-c1nc2ccc(C(N)=O)c(OCC)c2[nH]1 [Example 14, Ethyl 4-bromo-3-(6-carbamoyl-7-ethoxy-1H-benzo[d]imidazol-2-yl)-7-fluorobenzo[b]thiophene-2-carboxylate]
EC50 (WT human STING isoform): 2720 nM
EC50 [1]: 576 nM

COc1c(C(N)=O)cc(F)c2[nH]c(-c3c(C(=O)O)sc4c(F)ccc(Cl)c34)nc12 [Example 21, 3-(5-Carbamoyl-7-fluoro-4-methoxy-1H-benzo[d]imidazol-2-yl)-4-chloro-7-fluorobenzo[b]thiophene-2-carboxylic acid]
EC50 (WT human STING isoform): 4930 nM
EC50 [1]: 3590 nM

CCOc1c(C(N)=O)ccc2nc(-c3c(C(=O)O)sc4c(F)ccc(Br)c34)[nH]c12 [Example 15, 4-Bromo-3-(6-carbamoyl-7-ethoxy-1H-benzo[d]imidazol-2-yl)-7-fluorobenzo[b]thiophene-2-carboxylic acid]
EC50 (WT human STING isoform): > 40000 nM
EC50 [1]: > 40000 nM
Kd (huSTING (HAQ)): 55700 nM

COc1c(C(N)=O)ccc2nc(-c3c(C(=O)O)sc4cccc(Cl)c34)[nH]c12 [Example 9, 3-(6-Carbamoyl-7-methoxy-1H-benzo[d]imidazol-2-yl)-4-chlorobenzo[b]thiophene-2-carboxylic acid]
EC50 (WT human STING isoform): 4670 nM
EC50 [1]: 2460 nM
Kd (huSTING (WT)): 51000 nM
Kd (huSTING (HAQ)): 3100 nM

CCOC(=O)c1sc2cccc(Cl)c2c1-c1nc2cc(C(N)=O)ccc2[nH]1 [Example 1, Ethyl 3-(5-carbamoyl-1H-benzo[d]imidazol-2-yl)-4-chlorobenzo[b]thiophene-2-carboxylate]
EC50 (WT human STING isoform): 7070 nM
EC50 [1]: 574 nM

CCOC(=O)c1sc2c(F)ccc(Cl)c2c1-c1nc2c(OC)c(C(N)=O)cc(Cl)c2[nH]1 [Example 18, Ethyl 3-(5-carbamoyl-7-chloro-4-methoxy-1H-benzo[d]imidazol-2-yl)-4-chloro-7-fluorobenzo[b]thiophene-2-carboxylate]
EC50 (WT human STING isoform): 2270 nM
EC50 [1]: 1830 nM

CCOC(=O)c1sc2cccc(Cl)c2c1-c1nc2cc(C(N)=O)ccc2n1C (single isomer, unassigned) [Example 5.1, Ethyl 3-(5-Carbamoyl-1-methyl-1H-benzo[d]imidazol-2-yl)-4-chlorobenzo[b]thiophene-2-carboxylate]
EC50 (WT human STING isoform): 20100 nM
EC50 [1]: 8270 nM

NC(=O)c1ccc2[nH]c(-c3c(C(=O)O)sc4cccc(Cl)c34)nc2c1Cl [Example 13, 3-(5-Carbamoyl-4-chloro-1H-benzo[d]imidazol-2-yl)-4-chlorobenzo[b]thiophene-2-carboxylic acid]
EC50 (WT human STING isoform): 4380 nM
EC50 [1]: 6100 nM
Kd (huSTING (HAQ)): 33300 nM

CCOC(=O)c1sc2c(F)ccc(Cl)c2c1-c1nc2c(OC)c(C(N)=O)cc(F)c2[nH]1 [Example 23, Ethyl 3-(5-carbamoyl-7-fluoro-4-methoxy-1H-benzo[d]imidazol-2-yl)-4-chloro-7-fluorobenzo[b]thiophene-2-carboxylate]
EC50 (WT human STING isoform): 119 nM
EC50 [1]: 115 nM

COc1c(C(N)=O)ccc2nc(-c3c(C(=O)O)sc4c(F)ccc(Br)c34)[nH]c12 [Example 11, 4-Bromo-3-(6-carbamoyl-7-methoxy-1H-benzo[d]imidazol-2-yl)-7-fluorobenzo[b]thiophene-2-carboxylic acid]
EC50 (WT human STING isoform): 1040 nM
EC50 [1]: 651 nM
Kd (huSTING (WT)): 1450 nM
Kd (huSTING (HAQ)): 140 nM

NC(=O)c1ccc2[nH]c(-c3c(C(=O)O)sc4cccc(Cl)c34)nc2c1 [Example 2, 3-(5-Carbamoyl-1H-benzo[d]imidazol-2-yl)-4-chlorobenzo[b]thiophene-2-carboxylic acid]
EC50 (WT human STING isoform): > 40000 nM
EC50 [1]: 23900 nM
Kd (huSTING (HAQ)): 42000 nM

COc1c(C(N)=O)ccc2[nH]c(-c3c(C(=O)O)sc4c(Br)cnc(OC)c34)nc12 [Example 17, 7-Bromo-3-(5-carbamoyl-4-methoxy-1H-benzo[d]imidazol-2-yl)-4-methoxythieno[3,2-c]pyridine-2-carboxylic acid]
EC50 (WT human STING isoform): > 40000 nM
EC50 [1]: > 40000 nM
Kd (huSTING (WT)): 19100 nM
Kd (huSTING (HAQ)): 3600 nM

NC(=O)c1ccc2[nH]c(-c3c(C(=O)O)sc4c(F)ccc(Br)c34)nc2c1 [Example 8, 4-Bromo-3-(5-carbamoyl-1H-benzo[d]imidazol-2-yl)-7-fluorobenzo[b]thiophene-2-carboxylic acid]
EC50 (WT human STING isoform): 16400 nM
EC50 [1]: 18300 nM
Kd (huSTING (WT)): 91000 nM
Kd (huSTING (HAQ)): 6700 nM

CCOC(=O)c1sc2cccc(Cl)c2c1-c1nc2ccc(C(N)=O)cc2n1C (single isomer, unassigned) [Example 5.2, Ethyl 3-(6-carbamoyl-1-methyl-1H-benzo[d]imidazol-2-yl)-4-chlorobenzo[b]thiophene-2-carboxylate]
EC50 (WT human STING isoform): 29400 nM
EC50 [1]: 2510 nM

CCOC(=O)c1sc2cccc(Cl)c2c1-c1nc2ccc(C(N)=O)c(OC)c2[nH]1 [Example 4, Ethyl 3-(6-carbamoyl-7-methoxy-1H-benzo[d]imidazol-2-yl)-4-chlorobenzo[b]thiophene-2-carboxylate]
EC50 (WT human STING isoform): 57 nM
EC50 [1]: 4.1 nM

CCOC(=O)c1sc2c(F)ccc(Cl)c2c1-c1nc2c(OC)c(C(N)=O)ccc2[nH]1 [Example 20, Ethyl 3-(5-carbamoyl-4-methoxy-1H-benzo[d]imidazol-2-yl)-4-chloro-7-fluorobenzo[b]thiophene-2-carboxylate]
EC50 (WT human STING isoform): 131 nM
EC50 [1]: 122 nM

CCOC(=O)c1sc2cccc(Cl)c2c1-c1nc2cc(C(N)=O)cc(F)c2[nH]1 [Example 3, Ethyl 3-(5-carbamoyl-7-fluoro-1H-benzo[d]imidazol-2-yl)-4-chlorobenzo[b]thiophene-2-carboxylate]
EC50 (WT human STING isoform): 2580 nM
EC50 [1]: 455 nM

CCOC(=O)c1sc2cccc(OC)c2c1-c1nc2c(OC)c(C(N)=O)ccc2[nH]1 [Example 19, Ethyl 3-(5-carbamoyl-4-methoxy-1H-benzo[d]imidazol-2-yl)-4-methoxybenzo[b]thiophene-2-carboxylate]
EC50 (WT human STING isoform): 82 nM
EC50 [1]: 28 nM

CCOC(=O)c1sc2c(F)ccc(Br)c2c1-c1nc2cc(C(N)=O)ccc2[nH]1 [Example 7, Ethyl 4-bromo-3-(5-carbamoyl-1H-benzo[d]imidazol-2-yl)-7-fluorobenzo[b]thiophene-2-carboxylate]
EC50 (WT human STING isoform): 2120 nM
EC50 [1]: 441 nM

CCOC(=O)c1sc2c(Br)cnc(OC)c2c1-c1nc2c(OC)c(C(N)=O)ccc2[nH]1 [Example 16, Ethyl 7-bromo-3-(5-carbamoyl-4-methoxy-1H-benzo[d]imidazol-2-yl)-4-methoxythieno[3,2-c]pyridine-2-carboxylate]
EC50 (WT human STING isoform): 2730 nM
EC50 [1]: 1550 nM

COc1c(C(N)=O)ccc2[nH]c(-c3c(C(=O)O)sc4cccc(OC)c34)nc12 [Example 22, 3-(5-Carbamoyl-4-methoxy-1H-benzo[d]imidazol-2-yl)-4-methoxybenzo[b]thiophene-2-carboxylic acid]
EC50 (WT human STING isoform): 9040 nM
EC50 [1]: 9360 nM
